Data as given in ChEMBL document CHEMBL1201862, “PubChem BioAssay data set” (2004).
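How tested: cells in 96-well plates exposed to compound for 48 hours at five concentrations. GI50: concentration for 50% inhibition of growth.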 The source made the active and inactive calls. Rule as the data show it: active = GI50 up to about 1.1 µM and inactive = higher.

What was measured:
Experiment in all cases: inhibition of tumour cell growth, NCI panel, 48 h
[1] = tested on: 786-0
[2] = tested on: A549
[3] = tested on: ACHN
[4] = tested on: EKVX
[5] = tested on: HCC 2998
[6] = tested on: K562
[7] = tested on: M14
[8] = tested on: Malme-3M
[9] = tested on: NCI-H23
[10] = tested on: RPMI-8226
[11] = tested on: SK-MEL-28
[12] = tested on: SK-MEL-2
[13] = tested on: SK-MEL-5
[14] = tested on: SK-OV-3
[15] = tested on: SNB-19
[16] = tested on: SNB-75
[17] = tested on: U-251
[18] = tested on: RXF 393
[19] = tested on: SR

Measured: GI50

O=C1Cc2nc(CO)c(CO)c(CO)c2CO1
inactive: [1] > 100 µM | [2] > 100 µM | [3] > 100 µM | [4] > 100 µM | [5] > 100 µM | [6] > 100 µM | [7] > 100 µM | [8] > 100 µM | [9] > 100 µM | [10] > 100 µM | [11] > 100 µM | [12] > 100 µM | [13] > 100 µM | [14] > 100 µM | [15] > 100 µM | [16] > 100 µM | [17] > 100 µM

CC(=O)c1ccc(N2C(=O)C3c4[nH]c5ccccc5c4C4CCC(C(C)(C)C)CC4C3C2=O)cc1 (stereo unspecified)
inactive: [1] 18.6 µM | [2] 19.6 µM | [3] 28.3 µM | [4] 30.5 µM | [5] 20.7 µM | [6] 35.7 µM | [7] 23.9 µM | [8] 16.7 µM | [9] 19.2 µM | [10] 23.3 µM | [18] 17.9 µM | [11] 28.8 µM | [13] 25.6 µM | [14] 48.6 µM | [15] 62.2 µM | [16] 22.6 µM | [19] 26.7 µM | [17] 19.5 µM

O=C1CCCCCCCCCCC(=O)N2CCOCCOCCN1Cc1cccc(n1)C2
inactive: [1] > 100 µM | [2] > 100 µM | [3] > 100 µM | [4] > 100 µM | [5] > 100 µM | [6] 81.1 µM | [7] > 100 µM | [8] > 100 µM | [9] > 100 µM | [10] 36.1 µM | [18] 28.4 µM | [11] > 100 µM | [12] > 100 µM | [13] 61.5 µM | [14] > 100 µM | [15] > 100 µM | [16] 56 µM | [17] > 100 µM

COc1ccc(CNc2cnc3ccc(N)cc3n2)cc1OC
inactive: [1] > 100 µM | [2] > 100 µM | [3] > 100 µM | [4] > 100 µM | [5] > 100 µM | [6] > 100 µM | [7] > 100 µM | [8] > 100 µM | [9] > 100 µM | [10] > 100 µM | [11] 67 µM | [12] > 100 µM | [13] > 100 µM | [15] > 100 µM | [16] 66.7 µM | [19] > 100 µM

O=C(/C=C/c1ccco1)N1CCN(Cc2ccccc2)CC1
inactive: [1] > 100 µM | [2] > 100 µM | [3] > 100 µM | [4] > 100 µM | [5] > 100 µM | [7] > 100 µM | [9] > 100 µM | [10] > 100 µM | [11] > 100 µM | [13] > 100 µM | [14] > 100 µM | [15] > 100 µM | [16] > 100 µM | [19] > 100 µM | [17] > 100 µM

O=c1ccn(C2OC(CO)C(O)C2[Se]c2ccccc2)c(=O)[nH]1 (stereo unspecified)
inactive: [1] > 100 µM | [2] > 100 µM | [3] > 100 µM | [4] > 100 µM | [5] 92.3 µM | [6] > 100 µM | [7] > 100 µM | [8] > 100 µM | [9] > 100 µM | [11] > 100 µM | [12] > 100 µM | [13] > 100 µM | [14] > 100 µM | [15] > 100 µM | [16] > 100 µM | [19] > 100 µM | [17] > 100 µM

Cc1ccc(S(=O)(=O)Nn2c(O)c(C#N)c(-c3ccc(Cl)cc3)c(C#N)c2=O)cc1
inactive: [1] > 100 µM | [2] > 100 µM | [3] > 100 µM | [4] > 100 µM | [5] > 100 µM | [6] > 100 µM | [7] > 100 µM | [8] > 100 µM | [10] > 100 µM | [18] > 100 µM | [11] > 100 µM | [12] > 100 µM | [13] > 100 µM | [14] > 100 µM | [15] > 100 µM | [16] > 100 µM | [17] > 100 µM

CN(C)c1ccc(/C=C/c2ccc(/C=C/c3ccc(N(C)C)cc3)cc2)cc1
inactive: [1] > 100 µM | [2] 95.9 µM | [3] 57.8 µM | [4] > 100 µM | [5] > 100 µM | [6] 75.5 µM | [7] > 100 µM | [8] 13 µM | [9] 94.6 µM | [10] 63.8 µM | [18] > 100 µM | [11] > 100 µM | [12] > 100 µM | [13] 35.1 µM | [14] > 100 µM | [15] 78.5 µM | [16] > 100 µM | [17] > 100 µM
